PubChem BioAssay (NCI)
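In this assay, cells in 96-well plates receive the compound at five concentrations for 48 hours. Endpoints are linearly interpolated between the surrounding concentrations. TGI marks complete inhibition of growth.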

How the values were obtained:
Assay in all cases: NCI-60 cell line screen, 48 h
[1] = test system: A498 renal
[2] = test system: PC-3 prostate
[3] = test system: HT29 colon
[4] = test system: SK-OV-3 ovarian
[5] = test system: DU-145 prostate
[6] = test system: K-562 leukemia
[7] = test system: OVCAR-8 ovarian
[8] = test system: RPMI-8226 leukemia
[9] = test system: OVCAR-4 ovarian
[10] = test system: HOP-62 NSCLC
[11] = test system: UACC-62 melanoma
[12] = test system: CCRF-CEM leukemia
[13] = test system: SNB-19 CNS
[14] = test system: U251 CNS
[15] = test system: SNB-75 CNS
[16] = test system: LOX IMVI melanoma
[17] = test system: UO-31 renal
[18] = test system: ACHN renal
[19] = test system: RXF 393 renal
[20] = test system: SK-MEL-2 melanoma
[21] = test system: MDA-N
[22] = test system: OVCAR-5 ovarian
[23] = test system: SN12C renal
[24] = test system: OVCAR-3 ovarian
[25] = test system: M14 melanoma
[26] = test system: SK-MEL-5 melanoma
[27] = test system: HS 578T breast
[28] = test system: MDA-MB-231 breast
[29] = test system: SK-MEL-28 melanoma
[30] = test system: UACC-257 melanoma
[31] = test system: KM12 colon
[32] = test system: 786-0 renal
[33] = test system: NCI-H23 lung
[34] = test system: BT-549 breast
[35] = test system: IGROV1 ovarian
[36] = test system: MALME-3M melanoma
[37] = test system: HCT-116 colon
[38] = test system: MOLT-4 leukemia
[39] = test system: SW-620 colon
[40] = test system: NCI-H522 lung
[41] = test system: SR leukemia
[42] = test system: TK-10 renal
[43] = test system: MCF7 breast
[44] = test system: T-47D breast
[45] = test system: HOP-92 NSCLC
[46] = test system: SF-539 CNS
[47] = test system: COLO 205 colon
[48] = test system: SF-268 CNS
[49] = test system: SF-295 CNS
[50] = test system: A549 NSCLC
[51] = test system: NCI/ADR-RES ovarian
[52] = test system: HCT-15 colon
[53] = test system: NCI-H460 lung

`Cc1cc2c(c(=O)o1)C1=S(SC(c3ccccc3)=C1)S2` (stereo not drawn) was tested. Which TGI [1] did it give?
The TGI was 34 µM.

What about the TGI [2] of the same compound?
Its TGI is 65.1 µM.

And the TGI [3]?
The TGI was greater than 100 µM.

What about the TGI [4] of the same compound?
Its TGI is 52.6 µM.

What about the TGI [5] of the same compound?
The TGI was greater than 100 µM.

And the TGI [6]?
The TGI was greater than 100 µM.

What about the TGI [7] of the same compound?
The TGI was greater than 100 µM.

What about the TGI [8] of the same compound?
Its TGI is greater than 100 µM.

And the TGI [9]?
Its TGI is greater than 100 µM.

What about the TGI [10] of the same compound?
Its TGI is 45.5 µM.

What about the TGI [11] of the same compound?
The TGI was greater than 100 µM.

And the TGI [12]?
The TGI was greater than 100 µM.

What about the TGI [13] of the same compound?
Its TGI is greater than 100 µM.

What about the TGI [14] of the same compound?
The TGI was 57.2 µM.

And the TGI [15]?
The TGI was 94.5 µM.

What about the TGI [16] of the same compound?
The TGI was greater than 100 µM.

And the TGI [17]?
Its TGI is 94.8 µM.

What about the TGI [18] of the same compound?
The TGI was greater than 100 µM.

And the TGI [19]?
Its TGI is 50.1 µM.

And the TGI [20]?
The TGI was greater than 100 µM.

And the TGI [21]?
The TGI was greater than 100 µM.

What about the TGI [22] of the same compound?
The TGI was greater than 100 µM.

What about the TGI [23] of the same compound?
Its TGI is greater than 100 µM.

What about the TGI [24] of the same compound?
Its TGI is 75.2 µM.

What about the TGI [25] of the same compound?
The TGI was greater than 100 µM.

What about the TGI [26] of the same compound?
Its TGI is greater than 100 µM.

What about the TGI [27] of the same compound?
The TGI was 96 µM.

And the TGI [28]?
The TGI was greater than 100 µM.

And the TGI [29]?
The TGI was greater than 100 µM.

What about the TGI [30] of the same compound?
Its TGI is greater than 100 µM.

And the TGI [31]?
Its TGI is greater than 100 µM.

And the TGI [32]?
The TGI was 28.8 µM.

And the TGI [33]?
Its TGI is greater than 100 µM.

What about the TGI [34] of the same compound?
Its TGI is greater than 100 µM.

And the TGI [35]?
Its TGI is greater than 100 µM.

And the TGI [36]?
The TGI was 86.7 µM.

And the TGI [37]?
The TGI was 60.6 µM.

What about the TGI [38] of the same compound?
Its TGI is greater than 100 µM.

And the TGI [39]?
Its TGI is greater than 100 µM.

What about the TGI [40] of the same compound?
The TGI was greater than 100 µM.

And the TGI [41]?
The TGI was 38.5 µM.

What about the TGI [42] of the same compound?
The TGI was 87.4 µM.

And the TGI [43]?
The TGI was greater than 100 µM.

And the TGI [44]?
Its TGI is greater than 100 µM.

And the TGI [45]?
The TGI was 83 µM.

What about the TGI [46] of the same compound?
The TGI was 56.4 µM.

What about the TGI [47] of the same compound?
The TGI was greater than 100 µM.

What about the TGI [48] of the same compound?
The TGI was greater than 100 µM.

What about the TGI [49] of the same compound?
Its TGI is 88 µM.

What about the TGI [50] of the same compound?
The TGI was greater than 100 µM.

And the TGI [51]?
Its TGI is greater than 100 µM.

And the TGI [52]?
The TGI was greater than 100 µM.

What about the TGI [53] of the same compound?
The TGI was greater than 100 µM.
